For orientation: Ki means the equilibrium dissociation constant of an inhibitor or competing ligand from its target. Low readings indicate tighter binding, high ones weaker binding.

Each structure is given as a SMILES string.

Sequence of GST-Bcl-2 (P10415 whole entry): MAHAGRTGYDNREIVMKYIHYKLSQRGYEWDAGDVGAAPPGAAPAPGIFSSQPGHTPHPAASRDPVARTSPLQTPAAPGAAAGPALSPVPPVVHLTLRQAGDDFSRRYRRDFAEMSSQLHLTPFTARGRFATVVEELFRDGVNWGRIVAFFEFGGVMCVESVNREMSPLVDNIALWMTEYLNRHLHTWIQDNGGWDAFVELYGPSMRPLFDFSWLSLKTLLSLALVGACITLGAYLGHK

This test addresses GST-Bcl-2 (Homo sapiens, UniProt P10415). In words: Time Resolved-Fluorescence Resonance Energy Transfer (TR-FRET) Bcl-2 binding assay. The conditions noted are these: GST-Bcl-2 1 nM, F-Bak peptide probe 100 nM, Tb-anti-GST 1 nM; 3 hours at room temperature; Ki by Wang's equation. On the procedure: Determination of the utility of compounds having Formula (I) as binders to and inhibitors of anti-apoptotic Bcl-2 proteins was performed using the Time Resolved-Fluorescence Resonance Energy Transfer (TR-FRET) Assay. Tb-anti-GST antibody was purchased from Invitrogen (Catalog No. PV4216).
Representative compounds were serially diluted in dimethyl sulfoxide (DMSO) starting at 50 μM (2x starting concentration; 10% DMSO) and 10 μL were transferred into a 384-well plate. The samples are then mixed on a shaker for 1 minute and incubated for an additional 3 hours at room temperature. For each assay, the probe/antibody and protein/probe/antibody were included on each assay plate as negative and positive controls, respectively. Fluorescence was measured on the ENVISION plate reader (Perkin Elmer) using a 340/35 nm excitation filter and 520/525 (F-Bak peptide) and 495/510 nm (Tb-labeled […] antibody) emission filters. Inhibition constants (Ki) are shown in TABLE 2 below and were determined using Wang's equation (Wang Z.-X. An Exact Mathematical Expression For Describing Competitive Binding Of Two Different Ligands To A Protein Molecule. FEBS Lett. 1995, 360:111-4).
The inhibition constant (Ki) is the dissociation constant of an enzyme-inhibitor complex or a protein/small molecule complex, wherein the small molecule is inhibiting binding of one protein to another protein. So a large Ki value indicates a low binding affinity and a small Ki value indicates a high binding affinity.
The compounds are therefore expected to have utility in treatment of diseases during which anti-apoptotic Bcl-2 protein is expressed.
The compound `CC1(C)CCC(CN2CCN(c3ccc(C(=O)NS(=O)(=O)c4cccc(F)c4)c(Oc4ccc5[nH]ccc5c4)c3)CC2)=C(c2ccc(Cl)cc2)C1` [Example 35, 4-(4-{[2-(4-chlorophenyl)-4,4-dimethylcyclohex-1-en-1-yl]methyl}piperazin-1-yl)-N-[(3-fluorophenyl)sulfonyl]-2-(1H-indol-5-yloxy)benzamide] had a Ki of 8.84 nM. In other words, the single-digit nanomolar range.
Under `CC1(C)CCC(CN2CCN(c3ccc(C(=O)NS(=O)(=O)c4ccc5ccccc5c4)c(Oc4ccc5[nH]ccc5c4)c3)CC2)=C(c2ccc(Cl)cc2)C1` [Example 36, 4-(4-{[2-(4-chlorophenyl)-4,4-dimethylcyclohex-1-en-1-yl]methyl}piperazin-1-yl)-2-(1H-indol-5-yloxy)-N-(2-naphthylsulfonyl)benzamide] stands 31.7 nM; under `CC1(C)CCC(CN2CCN(c3ccc(C(=O)NS(=O)(=O)c4cccc5cnccc45)c(Oc4ccc5[nH]ccc5c4)c3)CC2)=C(c2ccc(Cl)cc2)C1` [Example 37, 4-(4-{[2-(4-chlorophenyl)-4,4-dimethylcyclohex-1-en-1-yl]methyl}piperazin-1-yl)-2-(1H-indol-5-yloxy)-N-(isoquinolin-5-ylsulfonyl)benzamide], 10.6 nM.
With `CC1(C)CCC(CN2CCN(c3ccc(C(=O)NS(=O)(=O)c4ccc(Cl)c([N+](=O)[O-])c4)c(Oc4cccc5[nH]ncc45)c3)CC2)=C(c2ccc(Cl)cc2)C1` [Example 38, N-[(4-chloro-3-nitrophenyl)sulfonyl]-4-(4-{[2-(4-chlorophenyl)-4,4-dimethylcyclohex-1-en-1-yl]methyl}piperazin-1-yl)-2-(1H-indazol-4-yloxy)benzamide], the Ki amounted to 0.174 nM.
